{
  "source": "ChEMBL document CHEMBL1126963",
  "about": "“Acid unit modifications of 1,2,4,5-substituted hydroxyacetophenones and the effect on in vitro and in vivo LTB4 receptor antagonism” (Bioorg Med Chem Lett, 1993)",
  "format_in_all_cases": "functional",
  "key": {"Homo sapiens": {"species_on_record": "Homo sapiens", "experiment": "Antagonism of LTB4 receptor induced CD11b/CD18 adhesion protein up-regulation in human neutrophil"}, "Cavia porcellus [1]": {"test_system": "Cavia porcellus", "experiment": "Potency was evaluated in vivo in a guinea pig model of LTB4-induced airway obstruction upon intravenous administration"}, "Cavia porcellus [2]": {"test_system": "Cavia porcellus", "experiment": "Potency was evaluated in vivo in a guinea pig model of LTB4-induced airway obstruction upon oral administration"}},
  "data": [
    {"smiles": "CCCc1c(OCCCOc2cc(O)c(C(C)=O)cc2CC)cccc1OC(CC)C(=O)O", "note": "(stereo not drawn)", "values": [
      {"measurement": "IC50", "setting": "Homo sapiens", "value": 1.94, "unit": "µM"}
    ]},
    {"smiles": "CCCc1c(OCCCOc2cc(O)c(C(C)=O)cc2CC)cccc1OC(C)C(=O)O", "note": "(stereo not drawn)", "values": [
      {"measurement": "IC50", "setting": "Homo sapiens", "value": 3.27, "unit": "µM"}
    ]},
    {"smiles": "CCCc1c(OCCCOc2cc(O)c(C(C)=O)cc2CC)ccc2c1OC(C(=O)[O-])CC2.[Na+]", "note": "(stereo not drawn)", "values": [
      {"measurement": "ED50", "setting": "Cavia porcellus [1]", "value": 0.23, "unit": "mg/kg"},
      {"measurement": "IC50", "setting": "Homo sapiens", "value": 1.6, "unit": "µM"},
      {"measurement": "ED50", "setting": "Cavia porcellus [2]", "value": 0.5, "unit": "mg/kg"}
    ]},
    {"smiles": "CCCc1c(OCCCOc2cc(O)c(C(C)=O)cc2CC)cccc1OCC(=O)O", "values": [
      {"measurement": "IC50", "setting": "Homo sapiens", "value": 4.39, "unit": "µM"}
    ]},
    {"smiles": "CCc1cc(C(C)=O)c(O)cc1OCCCCCC(C)(C)c1nn[nH]n1", "note": "[LY-255283]", "values": [
      {"measurement": "ED50", "setting": "Cavia porcellus [1]", "value": 2.8, "unit": "mg/kg"},
      {"measurement": "ED50", "setting": "Cavia porcellus [2]", "value": 11, "unit": "mg/kg"}
    ]}
  ]
}
